Experimental findings from patent US9034825B2, “Treatment of myocardial injury with humanin analogs” (Albert Einstein College of Medicine of Yeshiva University, priority 2007, dated 2015) are described below.

Data set [1] deals with Sprague-Dawley rats. Kind of data set: Intravenous infusion of humanin or analogs during hyperinsulinemic clamp. Conditions: IV during hyperinsulinemic clamp. In kind it is in vivo, rat. The protocol: To study the acute effects of an infusion of IGFBP-3, two groups of awake, unstressed, chronically catheterized Sprague-Dawley rats (˜300 g) were studied for 300 min (n=3 in each group) under hyperinsulinemic clamp (as previously described). From 120 min the rats received a primed continuous infusion of humanin (0.375 mg/kg/hr) or saline (control) for an additional 2 h. Plasma samples for determination of [3H]glucose and [3H] water specific activities were obtained at 10-min intervals during the basal and clamp periods. Steady state conditions for the plasma glucose concentration and specific activity were achieved within 90 min in all the studies. Plasma samples for determination of HN, insulin and FFA concentrations were collected at 30-min intervals throughout the study. All determinations were also performed on portal vein blood obtained at the end of the experiments. The total amount of blood drawn during the entire study for various assays is ˜3 cc. After separation of plasma (subsequently used for analysis), the red blood cells were reconstituted in saline and infused back into the animal.
To determine if peripheral infusion of the humanin analog colivelin affects insulin action, saline or colivelin (one hundredth of the dose of humanin) was infused intravenously during hyperinsulinemic clamp to two groups of rats that were matched for body weight (˜300 gm), visceral fat (˜3.5 grams), basal glucose (˜135 mg % or 7 mM). Colivelin increased hepatic insulin sensitivity by 33% while peripheral glucose uptake was unchanged (FIG. 14).
A primed-continuous ICV infusion of HN, F6A-HN (total dose of 20 μg), STAT-3 inhibitor (75 pmol) (Buettner et al. 2006), or aCSF was initiated at t=0 and maintained for the remainder of the experiment (FIG. 15A). Pancreatic insulin-clamp studies or euglycemic-hyperinsulinemic clamps were performed in conscious, unrestrained, catheterized mice for last 120 minutes as described previously (Bahar et al. 2006, Muzumdar et al. 2006). In the intra-venous group, HN, F6A, Colivelin, and HNGF6A were infused intravenously and hyperinsulinemic clamps were performed as described previously (Loeb et al. 2005). Estimation of glucose, glucose fluxes, insulin, FFA were done as described previously (Loeb et al. 2005). HN measurements were performed by an in-house, ELISA utilizing affinity purified humanin antibodies that recognize both human and rat humanin and has a limit of detection of 0.1 ng/ml (Hwang, and Cohen personal communication).

The test system of the next data set is NIT cells. Kind of data set: Survival, STAT-3 and ERK activation in NIT cells. In kind it is cell-based. The text has this:
Z-humanin, […] (SEQ ID NO:19).

The test system of data set [2] is pAKT and pSTAT-3 in hepatocytes. Kind of data set: Western blot of Phospho-STAT3 and Phospho-AKT in primary hepatocytes. The data set is classed as cell-based, rat. The protocol: Single-cell suspensions of hepatocytes were obtained from perfusions of Sprague-Dawley rats using the procedure of Berry and Friend (1969) and the perfusion mixture of Leffert et al (1979). Hepatocyte glucose production was estimated after a 24 hr treatment with HN, F6A and saline as described before (Berg et al. 2001). In a separate set of experiment, hepatocytes were lysed, and protein extracted in RIPA lysis buffer at 30, 60 and 360 min post treatment with FIN, F6A and saline. The cell lysates were then subject to western blotting for Phospho-STAT3 (Tyr705), total-STAT3, Phospho-AKT (Ser473), and total-AKT expression (antibodies purchased from Cell Signaling, #9131, #9132, #9271, #9272).

The target in another data set is IGF-1 (Homo sapiens, UniProt P05019). Kind of data set: Western ligand blots with 125I-labeled IGF-1. The data set is classed as binding. Conditions: data not shown.
For data set [3], the system named is Sprague-Dawley rats. Kind of data set: ICV infusion of IGF-1, IGFBP-3 or NLS mutant with basal and hyperinsulinemic clamp. Conditions: for Glycogen synthesis, Basal / Glycolysis, Basal / HGP, Basal: basal period; for GIR, Clamp: hyperinsulinemic clamp 3 mU/kg/min; for FFA: last 60 min; for whole body glucose disposal / peripheral glucose uptake (Rd) compared to controls: final 60 min; for infused human peptide in the rat periphery: after ICV infusion. The data set is classed as in vivo, rat. The text has this: Young (3 mo old, n=6 in each group), male Sprague-Dawley rats (Charles River Laboratories, Wilmington, Mass.) were used for this study. Rats were housed in individual cages and were subjected to a standard light (6:00 AM to 6:00 PM)—dark (6:00 PM to 6:00 AM) cycle. All rats were fed ad libitum using regular rat chow that consisted of 64% carbohydrate, 30% protein, and 6% fat with a physiological fuel value of 3.3-kcal/g chow. In the rats that received ICV infusions, 2 to 4 weeks before the in vivo study, the rats were anesthetized by inhalation of isoflurane and a cannula was placed ICV in the third ventricle for infusions of IGF-1, IGFBP-3 or IGFBP-3 mutant or artificial cerebrospinal fluid (aCSF), as previously described (Muzumdar et al., 2003) (FIG. 1). Briefly, a 26-gauge stainless steel guide cannula (Plastics One, Roanoke, Va.) was chronically implanted into the third ventricles using the following coordinates from bregma: anterior-posterior; +0.2 mm dorsal-ventral; −9.0 mm medial-lateral; 0.0 directly on the mid-sagittal suture, followed by a 28-gauge dummy cannula, inserted to prevent clogging of the guide cannula. The implant was secured to the skull with Caulk Grip dental cement, and the skin was closed over the implant using wound clips. The recovery of rats from the surgical stress was monitored with daily weight, food intake, and movement.
Upon recovery of body weight, usually a week, indwelling catheters were placed in the right internal jugular vein and in the left carotid artery (Muzumdar et al., 2003). The venous catheter was extended to the level of the right atrium, and the arterial catheter was advanced to the level of the aortic arch. Recovery was continued until body weight was within 3% of the pre-operative weight (˜4-6 days). In the rats that received peripheral IGFBP-3, only the vascular catheters were placed.
Studies were performed in unrestrained rats using the insulin clamp technique, in combination with high performance liquid chromatography-purified [3-^3H]glucose and [U-^14C]lactate infusions, as described previously (Liu et al., 1998). Food was removed for ˜5 h before the in vivo protocol. All studies lasted 360 min and included a 120-min equilibration period, a 120-min basal period for assessment of the basal glucose turnover, and a 120-min hyperinsulinemic clamp period. All rats received ICV infusions (bolus followed by continuous ICV infusions of IGF-1, IGFBP-3, IGFBP-3 mutant or aCSF, depending on the group) over the entire 6 hours of the study. At the beginning of the basal period and 120 min before starting the glucose/insulin infusions, a primed-continuous infusion of high performance liquid chromatography-purified [3-^3H]glucose (NEN Life Science Products, Boston, Mass.; 20 μCi of bolus, 0.2 μCi/min) was initiated and maintained throughout the remaining 4 h of the study. In the final 2 hours of the study, the rats were subjected to hyperinsulinemic clamp. The protocol followed during the insulin clamp study was similar to that previously described (Liu et al., 1998). Briefly, a primed-continuous infusion of regular insulin (3 milliunits/kg·min) was administered, and a variable infusion of a 25% glucose solution was started and periodically adjusted to clamp the plasma glucose concentration at 7-8 mM. To prevent endogenous insulin secretion and in order to control for possible effects of ICV infusions on the endocrine pancreas, somatostatin (1.5 μg/kg·min) was also infused in all the groups. [U-^14C]Lactate (5 μCi of bolus/0.25 μCi/min) was infused during the last 10 min of the study.
A bolus of hIGF-1 (0.3 mcg, a gift from Tercica, South San Francisco) was followed by a continuous infusion over 6 hours (total dose of 1 mcg, 0.06 μg/kg/hr).
A bolus of non glycosylated hIGFBP-3 (1.25 μg, generously provided by Celtrix, Mountain View Calif.) was followed by a continuous infusion over 6 hours (total dose of 5.25 mcg, 0.26 μg/kg/hr). […]

In data set [4] the test system is Glc-6-Pase mRNA in the liver. Kind of data set: Hepatic Glc-6-Pase mRNA by qRT-PCR at end of clamp after ICV infusion. The data set is classed as in vivo, rat. The protocol: (§1) Total RNA was extracted following Clontech's protocol. First-stranded cDNA was synthesized from 1 μg of total RNA using Superscript III (Gibco, Gaithersburg, Md.). Hepatic glucose-6-phosphatase (Glc-6-Pase) and phosphoenolpyruvate carboxykinase (PEPCK) mRNA abundance were assessed by qRT-PCR as described previously (Buettner et al., 2005). Quantification of these peptides and their copy number was normalized for GAPDH and 18S to correct for loading irregularities. The data presented are those normalized by GAPDH.

In a further data set the test system is PEPCK mRNA in the liver. Kind of data set: Hepatic PEPCK mRNA by qRT-PCR at end of clamp after ICV infusion. In kind it is in vivo, rat. The conditions noted are these: ICV infusion for 6 h, end of clamp (Example 1). The protocol:
as §1

Setting [5] is: humanin 0.375 mg/kg/hr, colivelin one hundredth of the dose of humanin.
[6] abbreviates: ICV IGFBP-3 or NLS mutant over 6 h.
[7] abbreviates: ICV IGFBP-3 or NLS mutant over 6 h, hyperinsulinemic clamp.
Where [8] appears, read: ICV infusion, hyperinsulinemic clamp.
The mark [9] stands for this setting: ICV IGF-1 1 μg over 6 h, hyperinsulinemic clamp.

Where no end group is shown, it is not given here.

Chain of IGF-1 (P05019 49-118): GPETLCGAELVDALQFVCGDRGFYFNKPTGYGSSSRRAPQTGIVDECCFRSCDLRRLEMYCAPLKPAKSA

For “sallrsipap agasrllllt geidlp (SALLRSIPAPAGASRLLLLTGEIDLP; Humanin analog colivelin)”, the “HGP / hepatic insulin action” value with Sprague-Dawley rats [1] (HN 0.375 mg/kg/hr, Colivelin 0.00375 mg/kg/hr) is on record as “significant further enhancement in hepatic insulin action”. Moreover, in the data set on Sprague-Dawley rats [1] (setting [5]), the “increase in hepatic insulin sensitivity” value came out at 33% and the peripheral glucose uptake result is “unchanged”.
“MAKRGLNCLPHQVSEIDLSVQKRI (Danio rerio) [Z-humanin]”: the “potency in survival, STAT-3 activation and ERK activation relative to humanin” value with NIT cells is given as “two-fold greater potency than humanin”.
As for “MAPRGASCLLLLTSEIDLPVKRRA [F6A HN, maprgascll lltseidlpv krra]”, the “pAKT or pSTAT-3 in hepatocytes” value in data set [2] is “did not elicit significant changes”.
For “NLS: non-glycosylated NLS mutant of IGFBP-3 with two amino acid substitutions (K228E and R230G)”, the “binding to 125I-labeled IGF-1” value in the data set with IGF-1 was “bound equally”. In the data set with Sprague-Dawley rats [3] (setting [6]), the “Glycogen synthesis, Basal” value is given as 5.34 ± 0.38; the “Glycolysis, Basal” value is 7.40 ± 0.71 mg/kg/min; the “HGP, Basal” value was 13.00 ± 0.72 mg/kg/min; the “GIR, Clamp” value turned out to be 11.98 ± 1.14 mg/kg/min. Also, in the data set on Sprague-Dawley rats [3] (setting [7]), the “Glycogen synthesis, Clamp” value was determined as 6.93 ± 0.37; the “Glycolysis, Clamp” value is recorded as 10.44 ± 0.96 mg/kg/min; the “HGP, Clamp” value was 5.37 ± 0.65 mg/kg/min; the “Rd, Clamp” value was 17.38 ± 1.11 mg/kg/min. For the same substance, the FFA in the data set with Sprague-Dawley rats [3] (setting [7]) was 0.35 ± 0.05 mEq/l. The h-IGFBP-3 in the data set with Sprague-Dawley rats [3] (ICV IGFBP-3 or NLS mutant over 6 h, peripheral plasma) worked out at 0 ng/mL. Also, in the data set on Sprague-Dawley rats [3] (setting [8]), the “glycogenolysis / hepatic glucose fluxes compared to controls” value was “no changes in glucose fluxes compared to controls” and the “whole body glucose disposal / peripheral glucose uptake (Rd) compared to controls” value was “did not result in significant changes”. Also, the “infused human peptide in the rat periphery” value (“infused human peptide” for short) in the data set on Sprague-Dawley rats [3] is reported as “No human IGF-1, hIGFBP-3 or NLS-IGFBP-3 was identified”.
Take “IGF-1: hIGF-1, Insulin-like growth factor-1, a gift from Tercica”: the “expression of G-6Pase lower than aCSF” value in data set [4] (ICV IGF-1, end of clamp) is 3 fold. Also, in data set [4] (ICV infusion for 6 h, end of clamp (Example 1)), the “expression of G-6Pase in the liver, ratio to GAPDH” value turned out to be 2.6 ±0.6. Further, in the data set on Sprague-Dawley rats [3] (ICV IGF-1 1 μg over 6 h), the “Glycogen synthesis, Basal” value stood at 4.87 ± 0.87; the “Glycolysis, Basal” value came to 7.02 ± 0.93 mg/kg/min; the “HGP, Basal” value was 12.4 ± 1.65 mg/kg/min; the “GIR, Clamp” value was 19.08 ± 1.55 mg/kg/min. Besides, in the data set with Sprague-Dawley rats [3] (setting [9]), the “Glycogen synthesis, Clamp” value is 8.09 ± 0.67; the “Glycolysis, Clamp” value is on record as 13.53 ± 1.17 mg/kg/min; the “HGP, Clamp” value stood at 2.49 ± 0.54 mg/kg/min; the “Rd, Clamp” value was determined as 21.62 ± 0.74 mg/kg/min. For the same substance, in the data set with Sprague-Dawley rats [3] (setting [9]), the FFA is on record as 0.23 ± 0.02 mEq/l. Moreover, the “IGF-1, human” value in the data set on Sprague-Dawley rats [3] (ICV IGF-1 1 μg over 6 h, peripheral plasma) came out at 0 ng/mL. For the same substance, the “improvement in hepatic insulin action (lower HGP than controls)” value in the data set with Sprague-Dawley rats [3] (ICV IGF-1, insulin clamp 3 mU/kg/min) was determined as 50%. In the data set on Sprague-Dawley rats [3] (setting [8]), the gluconeogenesis stood at 0.54 ± 0.2 mg/kg/min, the “glycogenolysis / hepatic glucose fluxes compared to controls” value is reported as “marked decrease”, the “insulin induced suppression of FFA compared to controls” value is “significantly higher” and the “whole body glucose disposal / peripheral glucose uptake (Rd) compared to controls” value is “tended to augment”. Also, the “infused human peptide” value in the data set with Sprague-Dawley rats [3] was “No hIGF-1 was detected”. The “infused human peptide” value in the data set with Sprague-Dawley rats [3] (listed as human IGF-1) is “No human IGF-1, hIGFBP-3 or NLS-IGFBP-3 was identified”. Further, the “PEPCK mRNA in the liver, ratio to GAPDH” value in the data set on PEPCK mRNA in the liver turned out to be 3.4 ±0.6.
As for “MAPRGASCLLLLTGEIDLPVARRA (Humanin analog HNGF6AK21A)”, the “potency in survival, STAT-3 activation and ERK activation relative to humanin” value with NIT cells was “much greater potency than humanin”.
